From US12257247B2 (Monte Rosa Therapeutics AG, priority 2023, dated 2025) come the findings set out here.

The target of the assay is T1, VAV1 (Homo sapiens, UniProt P15498+Q96SW2).
T1 construct: A heterozygous VAV1 C-terminal HiBiT knock-in pool was generated at Monte Rosa Therapeutics from a clonal Jurkat cell; endogenous in cells; host or cells: Jurkat clone stably expressing LgBiT, homozygous GSPT1-G575N; heterozygous VAV1-HiBiT knock-in pool
As to the kind of experiment: VAV1 degradation activity, VAV1-HiBiT knock-in Jurkat luminescence assay (Example A, Table 1). The format is cell-based. Conditions: VAV1-HiBiT knock-in Jurkat cells, luminescence read at 6 and 24 hours; for Dmax: Jurkat. An outline of the steps:
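Luminescence was measured at 6 and 24 h after adding compound (10 μM stock) to VAV1-HiBiT knock-in Jurkat cells, which had been pre-incubated ~16 h at 37° C. in RPMI/10% FBS containing Endurazine. EC50 values came from control-normalised responses fitted to a 3-parameter logistic model with hillslope fixed at 1.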
(In general: The HiBiT peptide binds its large partner to form an active luciferase.)

Where [1] appears, read: read-out: VAV1 DC50 (nM), class.

Read-outs that look alike come from different tables or passages of the source.

One may read the Dmax as the largest share of the target that was removed. What is called DC50 is the concentration giving 50% degradation. Consider `O=C1CCC(c2cccc(-c3cnc(Cn4ccccc4=O)c(F)c3)c2Cl)C(=O)N1` (centres unmarked) [Compound 412, 3-(2-chloro-3-(5-fluoro-6-((2-oxopyridin-1(2H)-yl)methyl)pyridin-3-yl)phenyl)piperidine-2,6-dione], for which the Dmax runs as follows: (read-out: VAV1 Dmax %) 67.3%; (read-out: VAV1 Dmax %, class) 60 to 90%. The DC50 runs as follows: (read-out: VAV1 DC50) 418 nM; under setting [1], 100 to 1000 nM.

Consider `CC1(C)CCC(=O)N1c1ccc(-c2cccc(C3CCC(=O)NC3=O)c2Cl)cc1` (centres unmarked) [Compound 413, 3-(2-chloro-4′-(2,2-dimethyl-5-oxopyrrolidin-1-yl)-[1,1′-biphenyl]-3-yl)piperidine-2,6-dione], for which the Dmax (read-out: VAV1 Dmax %) turned out to be 97.5% and the Dmax (read-out: VAV1 Dmax %, class) is above 90%. For the same compound, the DC50 was 4.87 nM (read-out: VAV1 DC50) and at most 100 nM under setting [1].

With `O=C1CCC(c2cccc(-c3ccc(N4C(=O)CCC45CC5)cc3)c2Cl)C(=O)N1` (centres unmarked) [Compound 414, 3-(2-chloro-4′-(5-oxo-4-azaspiro[2.4]heptan-4-yl)-[1,1′-biphenyl]-3-yl)piperidine-2,6-dione], the Dmax (read-out: VAV1 Dmax %) is 97.7% and the Dmax (read-out: VAV1 Dmax %, class) is above 90%. Besides, the DC50 runs as follows: (read-out: VAV1 DC50) 5.85 nM; under setting [1], at most 100 nM.

As to `CC1(C)COC(=O)N1c1ccc(-c2cccc(C3CCC(=O)NC3=O)c2Cl)cc1` (centres unmarked) [Compound 415, 3-(2-chloro-4′-(4,4-dimethyl-2-oxooxazolidin-3-yl)-[1,1′-biphenyl]-3-yl)piperidine-2,6-dione], the Dmax reads like this: (read-out: VAV1 Dmax %) 97.2%; (read-out: VAV1 Dmax %, class) above 90%. Moreover, the DC50 was 4.87 nM (read-out: VAV1 DC50) and at most 100 nM under setting [1].

As for `O=C1CCC(c2cccc(-c3ccc(N4C(=O)OCC45CCC5)cc3)c2Cl)C(=O)N1` (centres unmarked) [Compound 416, 3-(2-chloro-4′-(6-oxo-7-oxa-5-azaspiro[3.4]octan-5-yl)-[1,1′-biphenyl]-3-yl)piperidine-2,6-dione], the Dmax is 98% (read-out: VAV1 Dmax %) and above 90% (read-out: VAV1 Dmax %, class). In addition, the half-maximal degradation concentration (DC50) by setting is: (read-out: VAV1 DC50) 3.54 nM; under setting [1], at most 100 nM.

Turning to `O=C1CCC(c2cccc(-c3ccc(-n4cccc(CC(F)(F)F)c4=O)cc3)c2Cl)C(=O)N1` (centres unmarked) [Compound 417, 3-(2-chloro-4′-(2-oxo-3-(2,2,2-trifluoroethyl)pyridin-1(2H)-yl)-[1,1′-biphenyl]-3-yl)piperidine-2,6-dione], the Dmax by setting is: (read-out: VAV1 Dmax %) 98.5%; (read-out: VAV1 Dmax %, class) above 90%. In addition, the DC50 by setting is: (read-out: VAV1 DC50) 6.68 nM; under setting [1], at most 100 nM.

In the case of `O=C1CCC(c2cccc(-c3ccc(N4C(=O)CC45CCOCC5)cc3)c2Cl)C(=O)N1` (centres unmarked) [Compound 418, 3-(2-chloro-4′-(2-oxo-7-oxa-1-azaspiro-[3.5]nonan-1-yl)-[1,1′-biphenyl]-3-yl)piperidine-2,6-dione], the Dmax by setting is: (read-out: VAV1 Dmax %) 45.2%; (read-out: VAV1 Dmax %, class) below 60%. The DC50 by setting is: (read-out: VAV1 DC50) at least 10000 nM; under setting [1], above 1000 nM.

`O=C1CCC(c2cccc(-c3ccc(-n4cccnc4=O)c(F)c3)c2Cl)C(=O)N1` (centres unmarked) [Compound 419, 3-(2-chloro-3′-fluoro-4′-(2-oxopyrimidin-1(2H)-yl)-[1,1′-biphenyl]-3-yl)piperidine-2,6-dione]: the Dmax (read-out: VAV1 Dmax %) is 90.7% and the Dmax (read-out: VAV1 Dmax %, class) is above 90%. The DC50 is 43.1 nM (read-out: VAV1 DC50) and at most 100 nM under setting [1].

As to `Cc1cnc(Cc2ccc(-c3cccc(C4CCC(=O)NC4=O)c3Cl)cc2)nc1` (centres unmarked) [Compound 420, 3-(2-chloro-4′-((5-methylpyrimidin-2-yl)methyl)-[1,1′-biphenyl]-3-yl)piperidine-2,6-dione], the Dmax runs as follows: (read-out: VAV1 Dmax %) 98.8%; (read-out: VAV1 Dmax %, class) above 90%. Moreover, the half-maximal degradation concentration (DC50) is, setting by setting: (read-out: VAV1 DC50) 2.43 nM; under setting [1], at most 100 nM.

In the case of `COc1ccnc(Cc2ccc(-c3cccc(C4CCC(=O)NC4=O)c3Cl)cc2)n1` (centres unmarked) [Compound 421, 3-(2-chloro-4′-((4-methoxypyrimidin-2-yl)methyl)-[1,1′-biphenyl]-3-yl)piperidine-2,6-dione], the Dmax is 97.8% (read-out: VAV1 Dmax %) and above 90% (read-out: VAV1 Dmax %, class). For the same compound, the DC50 is, setting by setting: (read-out: VAV1 DC50) 6.96 nM; under setting [1], at most 100 nM.

For the compound `COc1cnc(Cc2ccc(-c3cccc(C4CCC(=O)NC4=O)c3Cl)cc2)nc1` (centres unmarked) [Compound 422, 3-(2-chloro-4′-((5-methoxypyrimidin-2-yl)methyl)-[1,1′-biphenyl]-3-yl)piperidine-2,6-dione], the Dmax (read-out: VAV1 Dmax %) worked out at 98.4% and the Dmax (read-out: VAV1 Dmax %, class) is above 90%. The DC50 (read-out: VAV1 DC50) came to 4.35 nM and the 50% degradation concentration (DC50) under setting [1] is at most 100 nM.

Take `O=C1CCC(c2cccc(-c3ccc(CS(=O)(=O)N4CCCC4)cc3)c2Cl)C(=O)N1` (centres unmarked) [Compound 423, 3-(2-chloro-4′-((pyrrolidin-1-ylsulfonyl)methyl)-[1,1′-biphenyl]-3-yl)piperidine-2,6-dione]: the Dmax runs as follows: (read-out: VAV1 Dmax %) 74.6%; (read-out: VAV1 Dmax %, class) 60 to 90%. In addition, the DC50 is, setting by setting: (read-out: VAV1 DC50) 144 nM; under setting [1], 100 to 1000 nM.

For `CN1CCCN(Cc2ccc(-c3cccc(C4CCC(=O)NC4=O)c3Cl)cc2)C1=O` (centres unmarked) [Compound 424, 3-(2-chloro-4′-((3-methyl-2-oxotetrahydropyrimidin-1(2H)-yl)methyl)-[1,1′-biphenyl]-3-yl)piperidine-2,6-dione], the Dmax reads like this: (read-out: VAV1 Dmax %) 95.3%; (read-out: VAV1 Dmax %, class) above 90%. Also, the DC50 is, setting by setting: (read-out: VAV1 DC50) 9.94 nM; under setting [1], at most 100 nM.

Regarding `CN1CCCN(Cc2ccc(-c3cccc(C4CCC(=O)NC4=O)c3Cl)cc2F)C1=O` (centres unmarked) [Compound 425, 3-(2-chloro-3′-fluoro-4′-((3-methyl-2-oxotetrahydropyrimidin-1(2H)-yl)methyl)-[1,1′-biphenyl]-3-yl)piperidine-2,6-dione], the Dmax reads like this: (read-out: VAV1 Dmax %) 96.5%; (read-out: VAV1 Dmax %, class) above 90%. The DC50 (read-out: VAV1 DC50) came to 10.7 nM and the DC50 under setting [1] is at most 100 nM.

Turning to `O=C1CCC(c2cccc(-c3ccc(N4C(=O)OCC45CC5)cc3)c2Cl)C(=O)N1` (centres unmarked) [Compound 426, 3-(2-chloro-4′-(5-oxo-6-oxa-4-azaspiro[2.4]heptan-4-yl)-[1,1′-biphenyl]-3-yl)piperidine-2,6-dione], the Dmax (read-out: VAV1 Dmax %) was 96.5% and the Dmax (read-out: VAV1 Dmax %, class) was above 90%. Besides, the DC50 by setting is: (read-out: VAV1 DC50) 8.9 nM; under setting [1], at most 100 nM.

Regarding `O=C1CCC(c2cccc(-c3cnc(-n4ccccc4=O)c(F)c3)c2Cl)C(=O)N1` (centres unmarked) [Compound 427, 3-(2-chloro-3-(3′-fluoro-2-oxo-2H-[1,2′-bipyridin]-5′-yl)phenyl)piperidine-2,6-dione], the Dmax runs as follows: (read-out: VAV1 Dmax %) 79.6%; (read-out: VAV1 Dmax %, class) 60 to 90%. Also, the DC50 was 246 nM (read-out: VAV1 DC50) and 100 to 1000 nM under setting [1].

`Cn1ccc(C(F)(F)F)c(-c2ccc(-c3cccc(C4CCC(=O)NC4=O)c3Cl)cc2)c1=O` (centres unmarked) [Compound 428, 3-(2-chloro-4′-(1-methyl-2-oxo-4-(trifluoromethyl)-1,2-dihydropyridin-3-yl)-[1,1′-biphenyl]-3-yl)piperidine-2,6-dione]: the Dmax runs as follows: (read-out: VAV1 Dmax %) 98.8%; (read-out: VAV1 Dmax %, class) above 90%. For the same compound, the DC50 is, setting by setting: (read-out: VAV1 DC50) 2.25 nM; under setting [1], at most 100 nM.

As for `O=C1CCC(c2cccc(-c3ccc(N4CCCN(CC(F)F)C4=O)cc3)c2Cl)C(=O)N1` (centres unmarked) [Compound 429, 3-(2-chloro-4′-(3-(2,2-difluoroethyl)-2-oxotetrahydropyrimidin-1(2H)-yl)-[1,1′-biphenyl]-3-yl)piperidine-2,6-dione], the Dmax is 96.9% (read-out: VAV1 Dmax %) and above 90% (read-out: VAV1 Dmax %, class). Besides, the half-maximal degradation concentration (DC50) reads like this: (read-out: VAV1 DC50) 5.19 nM; under setting [1], at most 100 nM.

Take `O=C1CCC(c2cccc(-c3ccc(Cc4ncco4)nc3)c2Cl)C(=O)N1` (centres unmarked) [Compound 430, 3-(2-chloro-3-(6-(oxazol-2-ylmethyl)pyridin-3-yl)phenyl)piperidine-2,6-dione]: the Dmax reads like this: (read-out: VAV1 Dmax %) 72.6%; (read-out: VAV1 Dmax %, class) 60 to 90%. Further, the DC50 was 261 nM (read-out: VAV1 DC50) and 100 to 1000 nM under setting [1].

`O=C1CCC(c2cccc(-c3ccc(CN4CCCOC4=O)nc3)c2Cl)C(=O)N1` (centres unmarked) [Compound 431, 3-(2-chloro-3-(6-((2-oxo-1,3-oxazinan-3-yl)methyl)pyridin-3-yl)phenyl)piperidine-2,6-dione]: the Dmax is, setting by setting: (read-out: VAV1 Dmax %) 23.5%; (read-out: VAV1 Dmax %, class) below 60%. Moreover, the DC50 is at least 10000 nM (read-out: VAV1 DC50) and above 1000 nM under setting [1].

With `CN1CCCN(Cc2ccc(-c3cccc(C4CCC(=O)NC4=O)c3Cl)cn2)C1=O` (centres unmarked) [Compound 432, 3-(2-chloro-3-(6-((3-methyl-2-oxotetrahydropyrimidin-1(2H)-yl)methyl)pyridin-3-yl)phenyl)piperidine-2,6-dione], the Dmax is 71.9% (read-out: VAV1 Dmax %) and 60 to 90% (read-out: VAV1 Dmax %, class). The DC50 is, setting by setting: (read-out: VAV1 DC50) 182 nM; under setting [1], 100 to 1000 nM.

Take `O=C1CCC(c2cccc(-c3ccc(CN4CCCCC4=O)nc3)c2Cl)C(=O)N1` (centres unmarked) [Compound 433, 3-(2-chloro-3-(6-((2-oxopiperidin-1-yl)methyl)pyridin-3-yl)phenyl)piperidine-2,6-dione]: the Dmax is 33.6% (read-out: VAV1 Dmax %) and below 60% (read-out: VAV1 Dmax %, class). For the same compound, the DC50 was at least 10000 nM (read-out: VAV1 DC50) and above 1000 nM under setting [1].

For the compound `O=C1CCC(c2cccc(-c3ccc(Cn4cccnc4=O)nc3)c2Cl)C(=O)N1` (centres unmarked) [Compound 434, 3-(2-chloro-3-(6-((2-oxopyrimidin-1(2H)-yl)methyl)pyridin-3-yl)phenyl)piperidine-2,6-dione], the Dmax reads like this: (read-out: VAV1 Dmax %) 46.2%; (read-out: VAV1 Dmax %, class) below 60%. Also, the DC50 (read-out: VAV1 DC50) is at least 10000 nM and the DC50 under setting [1] is above 1000 nM.
